Laboratory results taken from patent US9084779B2, “Conjugates of nitroimidazoles and their use as chemotherapeutic agents” (The Johns Hopkins University, priority 2011, dated 2015).

What was measured:
[1] = system: orthotopic HT29 tumor implants; assay: Orthotopic xenograft of HT29 human colorectal carcinoma in nude mice, systemic treatment; assay type: in vivo, nude (Nu/Nu) mice
Protocol: Orthotopic Xenograft implantation of HT29 human colorectal carcinoma cells into nude mice. HT29 cells were grown in culture in McCoy's medium until sub-confluent. A single cell suspension of HT29 was then prepared in HBSS and 1×10^7 cells were injected subcutaneously into the flanks of four male T-cell deficient nude (Nu/Nu) mice. Subcutaneous tumors were allowed to grow for 14 days before harvesting and preparation for orthotopic implantation. The mice were euthanized and the subcutaneous tumors were removed using sterile technique. The tumors were divided into 3×3 mm pieces that were kept in phosphate buffered saline (PBS) on ice. T-cell deficient nude (NU/NU) mice (6 male, 5 female) were anesthetized by injecting 0.5 to 1.0 mL of Avertin (20 mM) intraperitoneally in PBS. The abdomen was prepped with 70% ethanol three times and a small nick was made in the skin. The abdominal wall musculature was grasped, lifted, and entered with a single blade of scissors. The single blade of the scissors was used to push the contents of the abdominal cavity away and the incision was extended 2-3 cm. The cecum was identified by its blind ending pouch and exteriorized. The cecum was isolated from the rest of the mouse using pre-cut, sterile gauze and kept moist with warm PBS. A figure of 8 stitches was placed onto the cecum using a 7-0 sized suture and the cecal wall was slightly damaged at the site where the HT29 tumor piece is to be implanted using forceps. An HT29 tumor piece was positioned on the cecum under the stitch and the stitch was then tied. The cecum was returned to the abdominal cavity. Using staples, the mouse abdominal wall musculature and skin was closed and the mouse was allowed to recover from anesthesia.
Systemic treatment with M3N-PEG-2NI (compound 7d). A 40 mM stock solution of M3N-PEG-2NI was prepared by dissolving 0.14 g of M3N-PEG-2NI (MW=616.3 g/mol) in 5.7 mL of CPE. Each day of treatment, 4 T-cell deficient nude mice (2 male, 2 female) bearing orthotopic HT29 tumor implants received 0.1 ml of 20 mM M3N-PEG-2NI via I.V. or I.P. injections. The remaining 4 T-cell deficient nude mice (2 male, 2 female) received 0.1 mL of CPE (FIG. 7) Body weight of mice was monitored every week, until significant body weight change occurred. Then, body weight was measured every other day until day 24. All 8 mice were euthanized on day 24. The mice were dissected and their major organs collected. Special attention was taken in examination of livers since liver metastasis is common in orthotopic colon cancer models.

[2] = system: HT29 human colorectal carcinoma cells; assay: Cell viability by plating efficiency (colony formation after replating); assay type: cell-based; settings: 40 μM, 48 h, diluted 10,000 fold and replated, colonies stained eight days later
Protocol: FIG. 6 depicts the plating efficiency of HT29 human colorectal carcinoma cells after treatment with DMSO, 40μ M3n and 40μ M3N-PEG-2NI. HT29 cells were treated for 48 h with 40 μM M3N, 40 μM M3N-PEG-2NI or the DMSO vehicle. At the end of the treatment period, the cells were diluted 10,000 fold and replated. Eight days later colonies were stained with methylene blue.
For the further assessment of cell viability by plating efficiency, cells (2×10^6 cells/100 mm dish) from the human colorectal carcinoma cell line HT29 were treated for 48 hours with 40 μM M3N, 40 μM M3N-PEG-2NI or the DMSO vehicle. At the end of the treatment period, the cells from each dish were released by trypsinization, diluted 10,000 fold and replated into new 100 mm dishes. Eight days later colonies were stained with 0.25% methylene blue in 50% ethanol

[3] = system: subcutaneous LNCaP prostate cancer cell explants; assay: Immunofluorescence analysis of 2-nitroimidazole induced protein adducts in mouse tumor explants; assay type: in vivo, nude mice; settings: daily intravenous tail vein injection for three weeks
Protocol: Immunofluorescence analysis of 2-nitroimidazole induced protein adducts in mouse tumor explants. Nude mice with subcutaneous LNCaP prostate cancer cell explants were administered Hydroxyprobe-1, M3N or M3N-PEG-2NI for three weeks by daily intravenous tail vein injection with an additional injection 3 hours prior to euthanization. Tumors were removed from the euthanized mice by dissection and incubated in 30% sucrose/PBS overnight at 4° C. Excess sucrose was removed and the tissue was incubated in 30% sucrose/PBS:OCT (1:1) for 1 hour at room temperature. Afterward the tissue was frozen in 100% OCT. Frozen sections of […] were prepared and fixed in 4% PFA/PBS for 1 hour at room temperature. The sections were blocked overnight at 4° C. with 5% goat serum/PBS or at room temperature for 1 hour and then incubated with Hydroxyprobe-1 rabbit antiserum (1:200) overnight at 4° C. After three washes with PBS, the secondary antibody, mouse anti rabbit-FITC (1:1000) was added for 1 hour at room temperature. The sections were mounted using Vectashield and fluorescently imaged.

[4] = system: LNCaP human prostate cancer cells; assay: Western blot analysis of 2-nitroimidazole induced protein adducts in cell culture; assay type: cell-based; settings: 80 μM, 6 hours normoxic then 6 hours hypoxic or normoxic
Protocol: Western blot analysis of 2-nitroimidazole induced protein adducts in LNCaP cell cultures. Exponentially growing LNCaP human prostate cancer cells were treated with DMSO, 80 μM M3N-PEG-2NI or Hypoxyprobe-1 in standard media for 6 hours under normoxic conditions and then under hypoxic or normoxic conditions for additional 6 hours. Afterward the media was aspirated, the cells washed and ice cold RIPA lysis buffer was added and the cells lysed on ice for 15 minutes. The samples were centrifuged and the lysate collected. Cellular proteins in the extracts were analyzed for the presence of protein adducts using standard western blotting technique. The primary antibody was PAb2627 polyclonal antibody (1:200) directed against Hydroxyprobe-1 protein adducts. The secondary antibody was Anti-Rabbit HRP conjugate (1:2000). Detection was by chemiluminescence

[5] = 0.1 ml of 20 mM I.V. or I.P., three weeks, euthanized day 24, listed as M3N-PEG-2NI

COc1ccc(C[C@H](C)[C@H](C)Cc2ccc(OC)c(OCCOCCOCCOCCn3ccnc3[N+](=O)[O-])c2)cc1OC (racemic) [Compound 7d, (±)-(2R,3S)-4-(3,4-Dimethoxyphenyl)-1-[4-methoxy-3-[12-(2-nitro-1H-imidazol-1-yl)-1,4,7,10-tetraoxadodecanyl]phenyl]-2,3-dimethylbutane]
Mean Primary Tumor and Mass ([1]; 0.1 ml of 20 mM I.V. or I.P., three weeks, euthanized day 24, listed as M3N-PEG-2N): 300 ± 140 mg | Mean Abdominal Cavity Tumor Mass [1, 5]: 75 ± 50 mg | Mean Primary Tumor and Mass [1, 5]: 300 ± 140 mg | Body Weight Increase ([1]; 0.1 ml of 20 mM I.V. or I.P., to day 24): 11.3% | Mean Total Tumor Load ([1]; primary tumor plus total tumor mass, 0.1 ml of 20 mM I.V. or I.P., day 24, listed as M3N-PEG-2NI): 375 ± 150 mg | Mice that developed liver metastasis ([1]; treated group of 4 mice, day 24): 1 of the 4 | Peritoneal tumors ([1]; treated group, mice 5 (female) and 7 (male)): no peritoneal tumors | Peritoneal tumors ([1]; treated group, mice 6 (female) and 8 (male)): a single, small peritoneal tumor | Tumor masses surrounding the kidneys and ovaries, weight each ([1]; treated group, mouse 5): < 100 mg | Tumor surrounding the ovaries, weight ([1]; treated group, mouse 6): < 100 mg | Ability of HT29 cells to replicate after treatment (plating efficiency) [2]: unable to replicate | Protein adducts in tumor sections by immunofluorescence [3]: Protein-adducts were also found | Protein adducts by western blot (PAb2627 antibody) [4]: showed evidence of protein adducts
